The values that follow are results of earlier work, collected in patent US5478810A, “Peptide amides, processes for the preparation thereof and agents containing these as fibrin/thrombin clotting inhibitors” (Behringwerke Aktiengesellschaft, priority 1990, dated 1995).

No end group written: not given here. *: point of attachment. 4‑hydroxypiperidide = C-terminal 4-hydroxypiperidide, OC1CCN(*)CC1; 3‑methylpiperidide = C-terminal 3-methylpiperidide

The data set concerns plasma clotting. Conditions: relative to GPRP = 1.
With “GPRP 3-methylpiperidide (GPRP-{3‑methylpiperidide}) [known peptide derivative presented at the XIth American Symposium on Peptides]”, the “relative activity (amount of plasma which is inhibited with a defined amount of inhibitor)” value is on record as 1.29. As to GPRP-NH2, the “relative activity (amount of plasma which is inhibited with a defined amount of inhibitor)” value is 3.52.

In the case of “GPRP 4-hydroxypiperidide (GPRP-{4‑hydroxypiperidide}) [known peptide derivative presented at the XIth American Symposium on Peptides]”, the “relative activity (amount of plasma which is inhibited with a defined amount of inhibitor)” value is given as 1.2.
